Data as given in patent US20090061513A1, “Cell sorting and cell cultivation methods” (PicoVitro AB, priority 2007, published 2009).

Tested on: doxorubicin resistant sub line RPMI8226Dox40
Experiment: Single cell seeding and cultivation in microplate with doxorubicin-spiked growth medium (drug resistance screening), resistant cells
Assay type: cell-based, human
Details: 6 days of incubation, resistant vs sensitive cells
Description: The clean plates and semi-permeable top membranes were autoclaved for 20 min at 121° C. to obtain a sterile cell culture environment. An excess of recommended growth medium was added to the plate, and manually distributed evenly to all wells by an autoclaved hand scraper (VWR) or sterile cell scrapers (Falcon, for one-time use only). Then, automatic single cell seeding into predefined wells of the microplate was carried out using the FACS. A motorized x/y-stage combined with the software CloneCyt Plus (BD Biosciences) was used to control the exact position of every cell sorted in the plate. Selection of the cells to be seeded was performed based on their individual FSC/SSC (forward scatter/side scatter) properties (i.e. size and granularity). The cells were analyzed at a rate of approximately 100 cells/s. A representative set of cells was sought, meaning that all viable cells in the sample were selected for seeding into the plate. The cells were sorted directly from recommended growth medium in concentrations ranging from 10^5-10^6 cells/ml. FACS Clean solution (BD Biosciences) was let through the fluidics of the FACS prior to experiments to obtain sterility. The x/y-stage and the surrounding of the fluidics outlet was cleaned with 70% EtOH. During analysis, sterile 0.25×PBS was used as sheath buffer. […]

## COc1cccc2c1C(=O)c1c(O)c3c(c(O)c1C2=O)C[C@@](O)(C(=O)CO)C[C@@H]3O[C@H]1C[C@H](N)[C@H](O)[C@H](C)O1 [Doxorubicin, doxorubicin]
  Proliferation at higher drug concentrations: only resistant cells can proliferate at higher drug concentrations
